From US12358949B2, “Defensin fragments for use in therapy or prophylaxis” (priority 2019, dated 2025)
In brackets after ≈: the same amount, converted by molar mass. Read-outs that look alike come from different tables or passages of the source. Where a SMILES comes first, the peptide text is derived from it. [ ]: non-standard residue; d: D form.

How the values were obtained:
[1] = tested on: human cell line, red blood cells
Method: As positive control, cells were treated with 2% Triton X-100 while treatment with 0.01% acetic acid was used as negative control. […] Hemolytic activity was normalized to the hemolytic activity of 0.1% Triton X-100. The experiments were carried out in duplicates.
The activity was normalized to the positive control. As positive control, cells were treated with 2% Triton X-100 while treatment with 0.01% acetic acid was used as negative control.

Y. enterocolitica = type: cell-based
Method: (§1) The tested bacteria were incubated overnight in 1×TSB broth, centrifuged and washed with 10 mM sodium phosphate buffer containing 1% (w/v) TSB broth. 5×10^5 cfu/ml bacteria were mixed with different peptide concentrations in 10 mM sodium phosphate buffer with 1% (w/v) TSB (final volume 100 μl) and incubated for 2 hours at 37° C. Afterwards we added 100 μl 2×TSB broth and we measured the optical density at 600 nm (Spark 10M, Tecan, Austria). Bacterial growth was monitored for 12 hours, growing at 37° C. with shaking during the measurements each 30 minutes, except for Akkermansia muciniphila which were incubated at 37° C. in an anaerobic jar and growth was measured after 72 hours.

P. aeruginosa 4-MRGN = type: cell-based
Method: as §1

S. aureus USA300 = type: cell-based
Method: as §1

P. aeruginosa XPAT1 = type: cell-based
Method: as §1

E. coli BW 25113 [2] = type: cell-based
Method: as §1

A. baumannii 4-MRGN = type: cell-based
Method: as §1

E. faecium DSM 20477 = type: cell-based
Method: as §1

P. aeruginosa ATCC 27853 = type: cell-based
Method: as §1

A. baumannii DSM 30007 = type: cell-based
Method: as §1

P. aeruginosa PAO1 = type: cell-based
Method: as §1

P. aeruginosa XPAT2 = type: cell-based
Method: as §1

S. aureus ATCC 25923 = type: cell-based
Method: as §1

human erythrocytes = test: Hemolytic assay; type: cell-based
Method: Hemolytic activity was measured after an existing protocol^13. We obtained blood from two voluntary donors (sample collection had been previously approved by the Ethical Committee of the University Hospital of Tübingen, Germany) and 1 ml blood was washed with PBS two times. Afterwards we centrifuged the blood at 1000 g and performed a 1% (v/v) blood suspension in PBS. The blood suspension was incubated with different peptide concentrations (final concentration 0.5%) for one hour at 37° C. Then the samples were centrifuged at 1000 g for 10 minutes and the supernatant was collected and measured at 414 nm. […] These experiments were carried out in duplicates.

CaCo2/TC7 cells = tested on: CaCo2/TC7 cells
Method: CaCo2/TC7 (X, X) and HT29 MTX […] […] Experiments were carried out in duplicates.

K. pneumoniae 3-MRGN = type: cell-based
Method: as §1

K. pneumoniae DSM 30104 = type: cell-based
Method: as §1

E. faecium 475747 = type: cell-based
Method: as §1

E. coli JM83 = type: cell-based
Method: as §1

C. albicans 529L = type: cell-based
[3] = tested on: S. enterica serovar enteriditis; test: Turbidity broth assay (MIC); type: cell-based; settings: after 12 hours
Method: as §1

[4] = tested on: S. enterica serovar Enteritidis; test: Turbidity assay, MIC by optical density after 18 h; type: cell-based; design: key: XX High activity; X Low activity; No activity
E. coli BW 25113 [5] = test: Turbidity assay, MIC by optical density after 18 h; type: cell-based; design: key: XX High activity; X Low activity; No activity
Method: Bactericidal activity of the E. coli and S. aureus strains in the cell wall target experiments as well as the HD5 dimer experiments was assessed as described previously. Log-phase bacteria were collected by centrifugation (2500 rpm, 10 min, […]), washed twice with 10 mM sodium phosphate buffer containing 1% (w/v) TSB broth and the optical density at OD600 nm (OD600=0.1) was determined. Approximately 5×10^5 CFU/ml bacteria were incubated with serial peptide concentrations (1.17-150 μM) in a final volume of 100 μl in 10 mM sodium phosphate buffer containing 1% (w/v) TSB broth for 2 hours at 37° C. After incubation, 100 μl of 6% TSB (w/v) were added and absorbance was measured at 600 nm (Tecan, Switzerland) and monitored for 18 hours. Afterwards, 100 μl per well were plated on LB-plates to determine the numbers of viable bacteria microbiologically. Bactericidal activity is expressed as the LC99.9, the lowest concentration that killed ≥99.9% of bacteria. The experiment was repeated at least three times independently.

E. faecalis ATCC 19433 = test: Turbidity assay, MIC by optical density after 18 h; type: cell-based
[6] = Y. enterocolitica, after 12 hours
[7] = K. pneumoniae 3-MRGN, after 12 hours
[8] = K. pneumoniae DSM30104, after 12 hours
[9] = P. aeruginosa 4-MRGN, after 12 hours
[10] = S. aureus USA300, after 12 hours
[11] = P. aeruginosa XPAT1, after 12 hours
[12] = A. baumannii 4-MRGN, after 12 hours
[13] = E. faecium DSM20477, after 12 hours
[14] = E. faecium 475747, after 12 hours
[15] = P. aeruginosa ATCC 27853, after 12 hours
[16] = A. baumannii DSM30007, after 12 hours
[17] = P. aeruginosa PAO1, after 12 hours
[18] = P. aeruginosa XPAT2, after 12 hours
[19] = S. aureus ATCC25923, after 12 hours

Method for HT29 MTX E29 cells: CaCo2/TC7 (X, X) and HT29 MTX [MUT] (X, X) were seed in a 96 well plate in 90 μl media (1500 cells/well) and incubated at 37° C. for 24 hours. Afterwards peptide treatment with different concentrations started (volume of 10 μl solved in 0.01% acetic acid) and cells were incubated for 96 hours. Untreated and 1% Triton-X treated cells were used as controls. After the incubation we added 100 μl of CellTiter Glo2.0 solution and started our measurement protocol. The measurement was carried out in a Spark 10M (Tecan), starting with 12 minutes continuously shaking followed by the luminescence measurement with an integration time from 1 second per well. Experiments were carried out in duplicates.

Compound | MIC (Y. enterocolitica; 12 h) | MIC (P. aeruginosa 4-MRGN; 4-MRGN, 12 h) | MIC (S. aureus USA300; USA300, 12 h) | MIC (P. aeruginosa XPAT1; XPAT1, 12 h) | MIC (A. baumannii 4-MRGN; 4-MRGN, 12 h) | MIC (E. faecium DSM 20477; DSM 20477, 12 h) | MIC (P. aeruginosa ATCC 27853; ATCC 27853, 12 h) | MIC (A. baumannii DSM 30007; DSM 30007, 12 h) | MIC (P. aeruginosa PAO1; PAO1, 12 h) | MIC (P. aeruginosa XPAT2; XPAT2, 12 h) | MIC (S. aureus ATCC 25923; ATCC 25923, 12 h) | MIC (Y. enterocolitica; [6]) | MIC (K. pneumoniae 3-MRGN; [7]) | MIC (K. pneumoniae DSM 30104; [8]) | MIC (P. aeruginosa 4-MRGN; [9]) | MIC (S. aureus USA300; [10]) | MIC (P. aeruginosa XPAT1; [11]) | MIC (A. baumannii 4-MRGN; [12]) | MIC (E. faecium DSM 20477; [13]) | MIC (E. faecium 475747; [14]) | other results
C[C@H](N)C(=O)N[C@H](C(=O)N[C@@H](CS)C(=O)N[C@@H](Cc1ccc(O)cc1)C(=O)N[C@@H](CS)C(=O)N[C@@H](CCCNC(=N)N)C(=O)N[C@H](C(=O)NCC(=O)N[C@@H](CCCNC(=N)N)C(=O)O)[C@@H](C)O)[C@@H](C)O [HD-51-9] (H-ATCYCRTGR-OH; N-terminus and C-terminus assumed) | 50 to 100 µM | 100 µM | 50 µM | >100 µM | 25 µM | 25 µM | 50 µM | 100 µM | 50 µM | >100 µM | 50 µM |  |  |  |  |  |  |  |  |  | toxic effect in in vitro experiments [1]: no toxicity was observed; MIC (E. coli BW 25113 [2]; BW 25113, 12 h): 25 µM (≈ 25.8 µg/mL)
CC(=O)N[C@@H](C(=O)N[C@H](CS)C(=O)N[C@H](CO)C(=O)N[C@H](CS)C(=O)N[C@H](CCCNC(=N)N)C(=O)N[C@H](CC(C)C)C(=O)N[C@@H](C(=O)N[C@H](Cc1ccccc1)C(=O)N[C@H](CS)C(=O)N[C@H](CCCNC(=N)N)C(=O)N[C@H](CCCNC(=N)N)C(N)=O)C(C)C)C(C)C [HNP-41-11mod, Ac-vcscrlvfcrr-NH2] (Ac-[dV][dC][dS][dC][dR][dL][dV][dF][dC][dR][dR]-NH2) | 6.25 µM | 6.25 µM | 12.5 µM | 12.5 µM | 6.25 µM | 6.25 µM | 6.25 µM | 6.25 µM | 12.5 µM | 12.5 µM | 3.125 µM | 8.6 µg/mL | 8.6 µg/mL | 8.6 µg/mL | 8.6 µg/mL | 17.3 µg/mL | 17.3 µg/mL | 8.6 µg/mL | 8.6 µg/mL | 4.3 µg/mL | hemolytic toxicity (human erythrocytes; at ≤18.75 μM): negligible toxicity; hemolytic activity, in words (human erythrocytes; compared to Melittin): low hemolytic activity; cytotoxic effects (CaCo2/TC7 cells): minor cytotoxic effects; cytotoxic effects compared to CaCo2/TC7 (HT29 MTX E29 cells): more susceptible; MIC (K. pneumoniae 3-MRGN; 3-MRGN, 12 h): 6.25 µM; MIC (K. pneumoniae DSM 30104; DSM 30104, 12 h): 6.25 µM; MIC (E. faecium 475747; 475747, 12 h): 3.125 µM; MIC (P. aeruginosa ATCC 27853; [15]): 8.6 µg/mL; MIC (A. baumannii DSM 30007; [16]): 8.6 µg/mL; MIC (P. aeruginosa PAO1; [17]): 17.3 µg/mL; MIC (P. aeruginosa XPAT2; [18]): 17.3 µg/mL; MIC (S. aureus ATCC 25923; [19]): 4.3 µg/mL; MIC (E. coli JM83; E. coli JM83, after 12 hours): 8.6 µg/mL; MIC (E. coli JM83; JM83, 12 h): 6.25 µM; MIC (C. albicans 529L; 529L, 24 h): 25 µM; MIC (C. albicans 529L; C. albicans 529L, after 24 hours (Table 5)): 34.6 µg/mL
Ac-atcycrtGr-NH2 [HD-51-9mod] |  |  |  |  |  |  |  |  |  |  |  | 50 to 100 µM | >>> | >>> | 50 µM | 12.5 µM | >100 µM | 12.5 µM | 6.25 µM | 3.125 µM | MIC [3]: >>>; MIC (E. coli BW 25113 [2]; E. coli (BW 25113 per table title), after 12 hours): 25 µM; MIC (P. aeruginosa ATCC 27853; [15]): 12.5 µM; MIC (A. baumannii DSM 30007; [16]): 25 µM; MIC (P. aeruginosa PAO1; [17]): 50 µM; MIC (P. aeruginosa XPAT2; [18]): 100 µM; MIC (S. aureus ATCC 25923; [19]): 12.5 µM; MIC (C. albicans 529L; C. albicans 529L, after 12 hours (Table 4)): >100 µM
RGTRCYCTA [HD-51-9rev] |  |  |  |  |  |  |  |  |  |  |  |  |  |  |  |  |  |  |  |  | antimicrobial activity (MIC), activity class [4]: X; antimicrobial activity (MIC), activity class (E. coli BW 25113 [5]): XX; antimicrobial activity, in words (E. faecalis ATCC 19433): complete dissolving of bactericidal effects
